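Grown in 96-well plates, cells were treated for 48 hours with each compound at five concentrations. Insufficient inhibition: endpoint recorded as highest concentration tested. The concentration for full growth arrest is given as TGI.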
Columns and labels:
Test in all cases: DTP human tumour cell line panel, 48 h
NCI-H23 lung = test system: NCI-H23 lung
MOLT-4 leukemia = test system: MOLT-4 leukemia
SK-MEL-28 melanoma = test system: SK-MEL-28 melanoma
DMS 114 small cell lung = test system: DMS 114 small cell lung
RXF 393 renal = test system: RXF 393 renal
KM20L2 colon = test system: KM20L2 colon
OVCAR-4 ovarian = test system: OVCAR-4 ovarian
SN12C renal = test system: SN12C renal
LXFL 529 NSCLC = test system: LXFL 529 NSCLC
U251 CNS = test system: U251 CNS
A498 renal = test system: A498 renal
UO-31 renal = test system: UO-31 renal
SNB-19 CNS = test system: SNB-19 CNS
SF-295 CNS = test system: SF-295 CNS
OVCAR-3 ovarian = test system: OVCAR-3 ovarian
COLO 205 colon = test system: COLO 205 colon
HOP-18 NSCLC = test system: HOP-18 NSCLC
NCI-H460 lung = test system: NCI-H460 lung
NCI-H226 lung = test system: NCI-H226 lung
SW-620 colon = test system: SW-620 colon
M19-MEL melanoma = test system: M19-MEL melanoma
K-562 leukemia = test system: K-562 leukemia
SF-539 CNS = test system: SF-539 CNS
EKVX NSCLC = test system: EKVX NSCLC
CCRF-CEM leukemia = test system: CCRF-CEM leukemia
KM12 colon = test system: KM12 colon
SNB-75 CNS = test system: SNB-75 CNS
SK-MEL-5 melanoma = test system: SK-MEL-5 melanoma
HCC-2998 colon = test system: HCC-2998 colon
M14 melanoma = test system: M14 melanoma
TK-10 renal = test system: TK-10 renal
HOP-62 NSCLC = test system: HOP-62 NSCLC
OVCAR-5 ovarian = test system: OVCAR-5 ovarian
HT29 colon = test system: HT29 colon
HL-60(TB) leukemia = test system: HL-60(TB) leukemia
SK-MEL-2 melanoma = test system: SK-MEL-2 melanoma
DLD-1 colon = test system: DLD-1 colon
786-0 renal = test system: 786-0 renal
MALME-3M melanoma = test system: MALME-3M melanoma
HCT-116 colon = test system: HCT-116 colon
ACHN renal = test system: ACHN renal
XF 498 CNS = test system: XF 498 CNS
SF-268 CNS = test system: SF-268 CNS
CAKI-1 renal = test system: CAKI-1 renal
A549 NSCLC = test system: A549 NSCLC
LOX IMVI melanoma = test system: LOX IMVI melanoma
RPMI-8226 leukemia = test system: RPMI-8226 leukemia
DMS 273 small cell lung = test system: DMS 273 small cell lung
UACC-62 melanoma = test system: UACC-62 melanoma
SR leukemia = test system: SR leukemia
SNB-78 CNS = test system: SNB-78 CNS
OVCAR-8 ovarian = test system: OVCAR-8 ovarian
SK-OV-3 ovarian = test system: SK-OV-3 ovarian
UACC-257 melanoma = test system: UACC-257 melanoma
NCI-H522 lung = test system: NCI-H522 lung
IGROV1 ovarian = test system: IGROV1 ovarian
HCT-15 colon = test system: HCT-15 colon
HOP-92 NSCLC = test system: HOP-92 NSCLC

Cc1cc(Br)ccc1NC1=CC(=O)C(=O)c2ccccc21
TGI (NCI-H23 lung): 32.4 µM | TGI (MOLT-4 leukemia): > 100 µM | TGI (SK-MEL-28 melanoma): > 100 µM | TGI (DMS 114 small cell lung): 45 µM | TGI (RXF 393 renal): 69.6 µM | TGI (KM20L2 colon): > 100 µM | TGI (OVCAR-4 ovarian): 31.1 µM | TGI (SN12C renal): > 100 µM | TGI (LXFL 529 NSCLC): > 100 µM | TGI (U251 CNS): > 100 µM | TGI (A498 renal): > 100 µM | TGI (UO-31 renal): > 100 µM | TGI (SNB-19 CNS): > 100 µM | TGI (SF-295 CNS): > 100 µM | TGI (OVCAR-3 ovarian): > 100 µM | TGI (COLO 205 colon): > 100 µM | TGI (HOP-18 NSCLC): 57.1 µM | TGI (NCI-H460 lung): 78.2 µM | TGI (NCI-H226 lung): > 100 µM | TGI (SW-620 colon): 89.1 µM | TGI (M19-MEL melanoma): 29.5 µM | TGI (K-562 leukemia): > 100 µM | TGI (SF-539 CNS): > 100 µM | TGI (EKVX NSCLC): > 100 µM | TGI (CCRF-CEM leukemia): > 100 µM | TGI (KM12 colon): > 100 µM | TGI (SNB-75 CNS): > 100 µM | TGI (SK-MEL-5 melanoma): 36.8 µM | TGI (HCC-2998 colon): > 100 µM | TGI (M14 melanoma): > 100 µM | TGI (TK-10 renal): > 100 µM | TGI (HOP-62 NSCLC): > 100 µM | TGI (OVCAR-5 ovarian): > 100 µM | TGI (HT29 colon): > 100 µM | TGI (HL-60(TB) leukemia): 38.5 µM | TGI (SK-MEL-2 melanoma): > 100 µM | TGI (DLD-1 colon): > 100 µM | TGI (786-0 renal): > 100 µM | TGI (MALME-3M melanoma): 53 µM | TGI (HCT-116 colon): > 100 µM | TGI (ACHN renal): > 100 µM | TGI (XF 498 CNS): 89.1 µM | TGI (SF-268 CNS): > 100 µM | TGI (CAKI-1 renal): 53.1 µM | TGI (A549 NSCLC): > 100 µM | TGI (LOX IMVI melanoma): 48.5 µM | TGI (RPMI-8226 leukemia): > 100 µM | TGI (DMS 273 small cell lung): > 100 µM | TGI (UACC-62 melanoma): 36.1 µM | TGI (SR leukemia): > 100 µM | TGI (SNB-78 CNS): > 100 µM | TGI (OVCAR-8 ovarian): > 100 µM | TGI (SK-OV-3 ovarian): > 100 µM | TGI (UACC-257 melanoma): 39.4 µM | TGI (NCI-H522 lung): > 100 µM | TGI (IGROV1 ovarian): > 100 µM | TGI (HCT-15 colon): > 100 µM

COc1ccc(-c2c3ccccc3c(-c3ccc(OC)cc3)c3ccccc23)cc1
TGI (NCI-H23 lung): > 100 µM | TGI (MOLT-4 leukemia): > 100 µM | TGI (SK-MEL-28 melanoma): > 100 µM | TGI (DMS 114 small cell lung): > 100 µM | TGI (RXF 393 renal): > 100 µM | TGI (KM20L2 colon): > 100 µM | TGI (OVCAR-4 ovarian): > 100 µM | TGI (SN12C renal): > 100 µM | TGI (LXFL 529 NSCLC): > 100 µM | TGI (U251 CNS): > 100 µM | TGI (A498 renal): > 100 µM | TGI (UO-31 renal): > 100 µM | TGI (SNB-19 CNS): > 100 µM | TGI (SF-295 CNS): > 100 µM | TGI (OVCAR-3 ovarian): > 100 µM | TGI (COLO 205 colon): > 100 µM | TGI (HOP-18 NSCLC): > 100 µM | TGI (NCI-H460 lung): > 100 µM | TGI (NCI-H226 lung): > 100 µM | TGI (SW-620 colon): > 100 µM | TGI (M19-MEL melanoma): > 100 µM | TGI (K-562 leukemia): > 100 µM | TGI (SF-539 CNS): > 100 µM | TGI (EKVX NSCLC): > 100 µM | TGI (CCRF-CEM leukemia): > 100 µM | TGI (KM12 colon): > 100 µM | TGI (SNB-75 CNS): 95.7 µM | TGI (SK-MEL-5 melanoma): > 100 µM | TGI (HCC-2998 colon): > 100 µM | TGI (M14 melanoma): > 100 µM | TGI (TK-10 renal): > 100 µM | TGI (HOP-62 NSCLC): > 100 µM | TGI (OVCAR-5 ovarian): > 100 µM | TGI (HT29 colon): > 100 µM | TGI (HL-60(TB) leukemia): > 100 µM | TGI (SK-MEL-2 melanoma): > 100 µM | TGI (DLD-1 colon): > 100 µM | TGI (786-0 renal): > 100 µM | TGI (MALME-3M melanoma): > 100 µM | TGI (HCT-116 colon): > 100 µM | TGI (ACHN renal): > 100 µM | TGI (XF 498 CNS): > 100 µM | TGI (SF-268 CNS): > 100 µM | TGI (CAKI-1 renal): > 100 µM | TGI (A549 NSCLC): > 100 µM | TGI (LOX IMVI melanoma): > 100 µM | TGI (RPMI-8226 leukemia): > 100 µM | TGI (DMS 273 small cell lung): > 100 µM | TGI (UACC-62 melanoma): > 100 µM | TGI (SR leukemia): > 100 µM | TGI (SNB-78 CNS): > 100 µM | TGI (HOP-92 NSCLC): > 100 µM | TGI (OVCAR-8 ovarian): > 100 µM | TGI (SK-OV-3 ovarian): > 100 µM | TGI (UACC-257 melanoma): > 100 µM | TGI (NCI-H522 lung): > 100 µM | TGI (IGROV1 ovarian): > 100 µM | TGI (HCT-15 colon): > 100 µM

— PubChem BioAssay (NCI)
